From patent US12691151B2, “Methods and compositions for improving oncolytic virus infection for nonpermissive cancers” (Arizona Board of Regents on behalf of Arizona State …, priority 2019, dated 2026)
“Also recorded” adds a separate entry of the source.

Test system: HT29 cells
Type: cell-based, human

Structure (SMILES): CCC(=C/[C@H](C)C/C=C/C(C)=C/[C@@H](C)C(=O)[C@@H](C)[C@H](O)[C@@H](C)C/C(C)=C/C(=O)O)/C=C/[C@@H]1OC(=O)C=C[C@@H]1C [Leptomycin B]
- cell killing ability of MYXV: further enhanced the cell killing ability of MYXV
- cell viability (ATP), Leptomycin B pretreatment plus MYXV: further reduced the viability; also recorded: reduced cell viability
- cell viability (ATP) (64 h): sensitive to Leptomycin B treatment alone
